Measurements: patent US7262183B2, “Substituted 5-membered n-heterocyclic compounds and their uses for treating or preventing neurodegenerative diseases” (Instititute of Pharmacology and Toxicology, priority 2001, dated 2007)

Experiments:
[1] = system: adult mice sympathetic nerve endings damaged by 6-hydroxy-dopamine (6-OHDA); experiment: adult mice sympathetic nerve endings damaged by 6-OHDA, residual noradrenaline in submaxillary glands; assay type: in vivo; details: 10 mg/kg subcutaneous injection; 6-OHDA 8 mg/kg intraperitoneal; measured two weeks after last administration, HPLC-electrochemical detector
Description: The neurotrophic activity of the compounds of the present invention can also be determined in several animal pharmacological models in vivo, such as the model of adult mice sympathetic nerve endings damaged by 6-hydroxy-dopamine (6-OHDA).
Kunming species female mice (□) having a body weight of 18-22 g are randomly divided into the following groups: normal control group, model control group, FK506 (2 mg/kg) group, and the group of compound of the present invention (10 mg/kg) (10 mice per group). The mice are administrated with 6-OHDA (8 mg/kg) by intraperitoneal injection before 4 hours and after 4 continuous days of subcutaneous injection of the compound, while the control groups are administrated with the equivalent quantity of carrier by subcutaneous injection. After two weeks of the last administration, the mice are killed by luxation, and the two submaxillary glands of each of the mice are rapidly excised and weighed, placed in a glass grinder, then is homogenated with a homogenating liquid containing internal-standard, and centrifuged at 2000 g for 30 minutes. 20 μL of the obtained supernatant is directly injected in an HPLC-electrochemical detector to measure the content of noradrenaline (NE) in the submaxillary glands of the mice. […]

[2] = system: chick embryos dorsal root ganglia; experiment: chick embryos dorsal root ganglion cultures free of serum, neurite process growth; assay type: cell-based; details: for Average scoring: 48 h, neurite score 0-3, average of 10 ganglia, control (NGF only) 0.33
Description: The neurotrophic activity of compounds of the present invention can be determined through several biological models in vitro, e.g. the model of chick embryos dorsal root ganglion cultures free of serum in vitro.
In a sterile environment, dorsal root ganglia were dissected from chick embryos of 8 days gestation and inoculated in rat rail collagen coated culture bottles (5 to 6 dorsal root ganglia per bottle, and two bottles per dosage). After 1 hour of attachment in a 37° C., 5% CO2 incubator, NGF (0.15 ng/ml) containing culture medium free of serum (DMEM) and the compound of the present invention were added. The control groups were treated only with the same amount of NGF and culture medium. […] Five to six DRGs were cultured per bottle, and each treatment was performed in duplicate. The results of illustrative compound of example 15 promoting the growth of chick embryos dorsal root ganglia processes were outlined in table 1, wherein the scoring is the average scoring of 10 ganglia.
FIG. 1 indicates the growth of neurites of chick dorsal root ganglia under various dosages of the compound of example 15. A represents that chick embryos dorsal root ganglia with rare processes is caused by the treatment of sole NGF (0.15 ng/mL).

Structure (SMILES)	level of residual NE in the submaxillary glands of the mice (FIG. 2) [1]	Average scoring ([2]; 1 pM compound + NGF (0.15 ng/mL) in DMEM)	growth of neurites of chick dorsal root ganglia (FIG. 1) ([2]; 1 pM compound + NGF (0.15 ng/mL), FIG. 1 B)	Average scoring ([2]; 10 pM compound + NGF (0.15 ng/mL) in DMEM)	growth of neurites of chick dorsal root ganglia (FIG. 1) ([2]; 10 pM compound + NGF (0.15 ng/mL), FIG. 1 C, compared with 1 pM)	Average scoring ([2]; 100 pM compound + NGF (0.15 ng/mL) in DMEM)	growth of neurites of chick dorsal root ganglia (FIG. 1) ([2]; 100 pM compound + NGF (0.15 ng/mL), FIG. 1 D, compared with A, B and C)
CC(C)(C)C(=O)C(=O)N1CSC(C)(C)[C@@H]1C(=O)OCCCc1ccccc1 [Example 17, 3-phenyl-1-propyl (2S)-5,5-dimethyl-1-(3,3-dimethyl-1,2-dioxobutyl)-2-(4-thiazolidine)carboxylate]	raise the residual NE level						
CC(C)(C)C(=O)C(=O)N1CSC(C)(C)[C@@H]1C(=O)OCCCc1cccnc1 [Example 15, 3-(3-pyridyl)-1-propyl (2S)-5,5-dimethyl-1-(3,3-dimethyl-1,2-dioxobutyl)-2-(4-thiazolidine)carboxylate]	raise the residual NE level	1.00	enhances the improving effect of sole NGF (0.15 ng/mL) on the growth of neurites	1.31	stronger effect on the growth of neurites	1.57	strongest effect
